In the supplement of paper PMC10307832:

How the values were obtained:
Test in all cases: relative viability (nuclei count vs DMSO), 5 days (fraction); higher = more cells survive
[1] = test system: ABC-1
Procedure, shortened: (§1)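 Each reported value is a median over duplicate plates. It expresses relative viability: treated-well nuclei count divided by vehicle-well nuclei count. Lung cancer cell lines in 1536-well plates were dosed by pin tool a day after seeding, alone with one drug or with a fixed anchor-drug dose plus five library-drug doses (not always all listed) in √10 steps, and nuclei were counted after 5 days.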

[2] = test system: COR-L23
Procedure, shortened: as §1

[3] = test system: EPLC-272H
Procedure, shortened: as §1

[4] = test system: HARA
Procedure, shortened: as §1

[5] = test system: HCC-15
Procedure, shortened: as §1

[6] = test system: HCC-78
Procedure, shortened: as §1

[7] = test system: LC-2-ad
Procedure, shortened: as §1

[8] = test system: LU99A
Procedure, shortened: as §1

[9] = test system: NCI-H1355
Procedure, shortened: as §1

[10] = test system: NCI-H1651
Procedure, shortened: as §1

[11] = test system: NCI-H1915
Procedure, shortened: as §1

[12] = test system: NCI-H1993
Procedure, shortened: as §1

[13] = test system: NCI-H2023
Procedure, shortened: as §1

[14] = test system: NCI-H2085
Procedure, shortened: as §1

[15] = test system: NCI-H2126
Procedure, shortened: as §1

[16] = test system: NCI-H2342
Procedure, shortened: as §1

[17] = test system: NCI-H2347
Procedure, shortened: as §1

[18] = test system: NCI-H358
Procedure, shortened: as §1

[19] = test system: NCI-H650
Procedure, shortened: as §1

[20] = test system: NCI-H838
Procedure, shortened: as §1

[21] = test system: PC-14
Procedure, shortened: as §1

[22] = test system: SW 1573
Procedure, shortened: as §1

[23] = test system: UMC-11
Procedure, shortened: as §1

Oc1nc(-c2ccc(C(F)(F)F)cc2)nc2c1CSCC2 [XAV939] + Cc1cc(Nc2cc(N3CCN(C)CC3)nc(Sc3ccc(NC(=O)C4CC4)cc3)n2)n[nH]1 [Tozasertib] (partner 0.1 µM)
relative viability ([1]; first compound 0.08 µM): 0.126 | relative viability ([1]; first compound 0.253 µM): 0.169 | relative viability ([1]; first compound 0.8 µM): 0.166 | relative viability ([1]; first compound 2.53 µM): 0.165 | relative viability ([2]; first compound 0.08 µM): 0.194 | relative viability ([2]; first compound 0.253 µM): 0.195 | relative viability ([2]; first compound 0.8 µM): 0.225 | relative viability ([2]; first compound 2.53 µM): 0.154 | relative viability ([3]; first compound 0.08 µM): 0.409 | relative viability ([3]; first compound 0.253 µM): 0.287 | relative viability ([3]; first compound 0.8 µM): 0.22 | relative viability ([3]; first compound 2.53 µM): 0.255 | relative viability ([4]; first compound 0.08 µM): 0.107 | relative viability ([4]; first compound 0.253 µM): 0.0774 | relative viability ([4]; first compound 0.8 µM): 0.102 | relative viability ([4]; first compound 2.53 µM): 0.103 | relative viability ([5]; first compound 0.08 µM): 0.452 | relative viability ([5]; first compound 0.253 µM): 0.382 | relative viability ([5]; first compound 0.8 µM): 0.394 | relative viability ([5]; first compound 2.53 µM): 0.368 | relative viability ([6]; first compound 0.08 µM): 0.558 | relative viability ([6]; first compound 0.253 µM): 0.373 | relative viability ([6]; first compound 0.8 µM): 0.531 | relative viability ([6]; first compound 2.53 µM): 0.368 | relative viability ([7]; first compound 0.08 µM): 0.481 | relative viability ([7]; first compound 0.253 µM): 0.446 | relative viability ([7]; first compound 0.8 µM): 0.488 | relative viability ([7]; first compound 2.53 µM): 0.381 | relative viability ([8]; first compound 0.08 µM): 0.268 | relative viability ([8]; first compound 0.253 µM): 0.261 | relative viability ([8]; first compound 0.8 µM): 0.237 | relative viability ([8]; first compound 2.53 µM): 0.284 | relative viability ([9]; first compound 0.08 µM): 0.715 | relative viability ([9]; first compound 0.253 µM): 0.473 | relative viability ([9]; first compound 0.8 µM): 0.548 | relative viability ([9]; first compound 2.53 µM): 0.411 | relative viability ([10]; first compound 0.08 µM): 0.726 | relative viability ([10]; first compound 0.253 µM): 0.58 | relative viability ([10]; first compound 0.8 µM): 0.763 | relative viability ([10]; first compound 2.53 µM): 0.639 | relative viability ([11]; first compound 0.08 µM): 0.5 | relative viability ([11]; first compound 0.253 µM): 0.444 | relative viability ([11]; first compound 0.8 µM): 0.416 | relative viability ([11]; first compound 2.53 µM): 0.43 | relative viability ([12]; first compound 0.08 µM): 0.559 | relative viability ([12]; first compound 0.253 µM): 0.605 | relative viability ([12]; first compound 0.8 µM): 0.551 | relative viability ([12]; first compound 2.53 µM): 0.59 | relative viability ([13]; first compound 0.08 µM): 0.391 | relative viability ([13]; first compound 0.253 µM): 0.334 | relative viability ([13]; first compound 0.8 µM): 0.278 | relative viability ([13]; first compound 2.53 µM): 0.226 | relative viability ([14]; first compound 0.08 µM): 0.774 | relative viability ([14]; first compound 0.253 µM): 0.856 | relative viability ([14]; first compound 0.8 µM): 0.651 | relative viability ([14]; first compound 2.53 µM): 0.688 | relative viability ([15]; first compound 0.08 µM): 0.791 | relative viability ([15]; first compound 0.253 µM): 0.774 | relative viability ([15]; first compound 0.8 µM): 0.778 | relative viability ([15]; first compound 2.53 µM): 0.651 | relative viability ([16]; first compound 0.08 µM): 0.592 | relative viability ([16]; first compound 0.253 µM): 0.511 | relative viability ([16]; first compound 0.8 µM): 0.419 | relative viability ([16]; first compound 2.53 µM): 0.301 | relative viability ([17]; first compound 0.08 µM): 0.613 | relative viability ([17]; first compound 2.53 µM): 0.388 | relative viability ([18]; first compound 0.08 µM): 0.112 | relative viability ([18]; first compound 0.253 µM): 0.0945 | relative viability ([18]; first compound 0.8 µM): 0.0995 | relative viability ([18]; first compound 2.53 µM): 0.0987 | relative viability ([19]; first compound 0.08 µM): 0.883 | relative viability ([19]; first compound 0.253 µM): 0.691 | relative viability ([19]; first compound 0.8 µM): 0.646 | relative viability ([19]; first compound 2.53 µM): 0.611 | relative viability ([20]; first compound 0.08 µM): 0.274 | relative viability ([20]; first compound 0.253 µM): 0.259 | relative viability ([20]; first compound 0.8 µM): 0.276 | relative viability ([20]; first compound 2.53 µM): 0.209 | relative viability ([21]; first compound 0.08 µM): 0.673 | relative viability ([21]; first compound 0.253 µM): 0.551 | relative viability ([21]; first compound 0.8 µM): 0.685 | relative viability ([21]; first compound 2.53 µM): 0.544 | relative viability ([22]; first compound 0.08 µM): 0.174 | relative viability ([22]; first compound 0.253 µM): 0.139 | relative viability ([22]; first compound 0.8 µM): 0.211 | relative viability ([22]; first compound 2.53 µM): 0.213 | relative viability ([23]; first compound 0.08 µM): 0.189 | relative viability ([23]; first compound 0.253 µM): 0.205 | relative viability ([23]; first compound 0.8 µM): 0.19 | relative viability ([23]; first compound 2.53 µM): 0.211
